Measured values as given in patent US20260265329A1, “POLYPEPTIDE AND DERIVATIVE THEREOF, COMPOSITION, AND USE THEREOF” (HANGZHOU SCIWIND BIOSCIENCES CO., LTD., priority 2023, published 2026).
Starred links: 1 amine or outer side, 2 acyl side, 3 side chain; linkers in the order of their positions; H or OH if unused. Non-standard residues stand in square brackets, D forms with d. Residues, ends and D or L forms follow the SMILES beside them. *: point of attachment. C20 diacid = O=C(O)CCCCCCCCCCCCCCCCCCC(=O)*; γGlu = O=C(O)[C@H](CCC(=O)[*:2])N[*:1]; Hyp = O=C(O)[C@@H]1C[C@@H](O)CN1; NMeN = CN[C@@H](CC(N)=O)C(=O)O

Columns and labels:
[1] = target: T1, human amylin receptors (Homo sapiens, UniProt O60896+P30988); experiment: Luciferase assay in stably transfected amylin receptor/CRE-luc CHO cell line; format: cell-based; details: for Relative activity: EC50 ratio of Cagrilintide to the compound, Cagrilintide 100%; for EC50: amylin receptor/CRE-luc CHO cells, 24 hours incubation, luminescence
T1 construct: host or cells: CHO-K1/Ga15/AMY3 cells, further stably transfected with a CRE-luciferase plasmid
T1 sequence (P30988 25-474): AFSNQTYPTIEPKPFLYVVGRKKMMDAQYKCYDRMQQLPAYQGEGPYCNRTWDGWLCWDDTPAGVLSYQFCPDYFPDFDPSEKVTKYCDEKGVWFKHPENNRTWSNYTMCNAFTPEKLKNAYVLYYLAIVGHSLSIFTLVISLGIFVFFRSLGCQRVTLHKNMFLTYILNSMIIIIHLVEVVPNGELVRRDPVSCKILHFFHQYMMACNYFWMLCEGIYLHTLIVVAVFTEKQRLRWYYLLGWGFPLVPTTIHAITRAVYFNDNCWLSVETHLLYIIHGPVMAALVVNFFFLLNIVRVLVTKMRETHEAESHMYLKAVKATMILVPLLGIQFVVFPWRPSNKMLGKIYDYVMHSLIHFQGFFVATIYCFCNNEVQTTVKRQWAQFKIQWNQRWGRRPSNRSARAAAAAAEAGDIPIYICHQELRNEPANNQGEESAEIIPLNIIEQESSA
T1 sequence (O60896 24-148 partner): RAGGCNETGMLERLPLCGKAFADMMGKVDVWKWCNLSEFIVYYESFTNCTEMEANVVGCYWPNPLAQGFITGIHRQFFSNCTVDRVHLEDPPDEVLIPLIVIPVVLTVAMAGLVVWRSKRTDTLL

[2] = Heat accelerated stability assay, 40° C., detection on 7 d and 28 d; format: physicochemical
Protocol: (§1) The derivatives (1 mg/mL) were mixed with sodium dihydrogen phosphate (1.42 mg/mL) and dissolved in ultrapure water. After adjusting pH to about 7.4 with hydrochloric acid/sodium hydroxide, the solution was filtered into a sterilized vial in a clean bench using a 0.22 μm sterile filter. The vial was then capped and placed into the stability test chamber at 40° C. Detections were made on Days 7 (7d) and 28 (28d), and during the assay, changes in the characteristics and properties of the polypeptides were observed and recorded. The sample was then centrifuged for 3 min at 10000 rpm at 4° C., and the supernatant was transferred to a liquid phase sample vial for detecting the concentration and purity of the polypeptides using liquid phase chromatography described as below.
Conditions of the reversed phase chromatography Flow rate: 1.0 mL/min; Autosampler temperature: 15° C.; Column temperature: 25° C.; Detection wavelength: 214 nm; Mobile phase A: 100% H2O+0.05% TFA; Mobile phase B: 100% ACN; and Gradient of elution listed in Table 4: […]

[3] = Heat accelerated stability assay, 40° C., detection on 10 d and 20 d; format: physicochemical; details: 1 mg/mL, pH about 7.4, 40° C.
Protocol: as §1, with “10d” for “Days 7 (7d)”, “20d,” for “28 (28d),”, “assay” for “assay,”
Flow rate: 1.0 mL/min; Autosampler temperature: 25° C.; Column temperature: 25° C.; Detection wavelength: 214 nm; Mobile phase A: 110 mM phosphate buffer (pH 5.8): ACN=90:10; Mobile phase B: ACN: IPA: H2O=85:5:10; and Gradient of elution listed in Table 6: […]

[4] = in vivo; parameters: species or system SD rats; details: rat, sc, 1 mg/kg
Protocol: The animals received a subcutaneous injection of corresponding compounds for testing (1 mg/kg and 5 ml/kg), and the day of administration was designated as D1. The whole blood of the animals was collected pre dose (-10 min) on D1 and post dose at D1-2h, D1-4h, D1-6h, D2-24h, D3-48h, D4-72h, D5-96h, and D6-120 h and was processed into plasma (using EDTA for anticoagulation). Liquid chromatography-tandem mass spectrometry (LC-MS/MS) was used to detect the concentration of drug molecules in the plasma, and GraphPad Prism 10 was utilized to plot a concentration-time curve for the drugs whose pharmacokinetic parameters including Cmax, Tmax, T1/2, AUC, and MRT were then calculated with PKSolver.

| Relative activity [1] [%] | Purity from the reversed phase chromatography-214 nm, 0 d ([2]; 1 mg/mL, pH about 7.4, 40° C., 0 d) | Purity from the reversed phase chromatography-214 nm, 7 d ([2]; 1 mg/mL, pH about 7.4, 40° C., 7 d) | Purity from the reversed phase chromatography-214 nm, 28 d ([2]; 1 mg/mL, pH about 7.4, 40° C., 28 d) | Change (7 d − 0 d) ([2]; purity on 7 d − purity on 0 d, 40° C., pH about 7.4) | Change (28 d − 0 d) ([2]; purity on 28 d − purity on 0 d, 40° C., pH about 7.4) | Reduction in purity, 10 d [3] [%] | AUC(0-inf) [4] [µg·h/mL] | AUC(0-t) [4] [µg·h/mL] | Cmax [4] [ng/mL] | MRT inf [4] [h] | Tmax [4] [h] | half-life [4] [h] | EC50 [1] [pM] | Reduction in purity, 20 d [3] [%] | Structure (SMILES) |
| --- | --- | --- | --- | --- | --- | --- | --- | --- | --- | --- | --- | --- | --- | --- | --- |
| 100 | 90.04 | 82.03 | 73.89 | −8.01 | −16.15 | 44.83 | 177 | 173 | 3270 | 43.4 | 24 | 24.7 |  |  | CC[C@H](C)[C@H](NC(=O)[C@@H]1CCCN1C(=O)CNC(=O)[C@H](Cc1ccccc1)NC(=O)[C@H](CC(N)=O)NC(=O)[C@H](CC(N)=O)NC(=O)[C@H](CO)NC(=O)[C@H](CO)NC(=O)[C@H](Cc1c[nH]cn1)NC(=O)[C@H](CCCNC(=N)N)NC(=O)[C@H](CC(C)C)NC(=O)[C@H](Cc1ccccc1)NC(=O)[C@H](CCC(=O)O)NC(=O)[C@H](C)NC(=O)[C@H](CC(C)C)NC(=O)[C@H](CCCNC(=N)N)NC(=O)[C@H](CCC(N)=O)NC(=O)[C@@H](NC(=O)[C@H](C)NC(=O)[C@@H]1CSSC[C@H](NC(=O)[C@H](CCCCN)NC(=O)CC[C@H](NC(=O)CCCCCCCCCCCCCCCCCCC(=O)O)C(=O)O)C(=O)N[C@@H](CC(N)=O)C(=O)N[C@@H]([C@@H](C)O)C(=O)N[C@@H](C)C(=O)N[C@@H]([C@@H](C)O)C(=O)N1)[C@@H](C)O)C(=O)N[C@@H](CC(C)C)C(=O)N1CCC[C@H]1C(=O)N1CCC[C@H]1C(=O)N[C@H](C(=O)N[C@@H](CC(N)=O)C(=O)N[C@H](C(=O)NCC(=O)N[C@@H](CO)C(=O)N[C@@H](CC(N)=O)C(=O)N[C@H](C(=O)N1CCC[C@H]1C(N)=O)[C@@H](C)O)C(C)C)[C@@H](C)O [Cagrilintide, reference compound] |
| 32 |  |  |  |  |  | 4.8 |  |  |  |  |  |  | 280 |  | CC[C@H](C)[C@H](NC(=O)[C@@H]1CCCN1C(=O)[C@H](CCCCN)NC(=O)[C@H](CC(C)C)NC(=O)[C@H](CCC(=O)O)NC(=O)[C@H](CCC(=O)O)NC(=O)[C@H](CO)NC(=O)[C@H](CO)NC(=O)[C@H](Cc1c[nH]cn1)NC(=O)[C@H](CCCNC(=N)N)NC(=O)[C@H](CC(C)C)NC(=O)[C@H](Cc1ccccc1)NC(=O)[C@H](CC(=O)O)NC(=O)[C@H](C)NC(=O)[C@H](CC(C)C)NC(=O)[C@H](CCCNC(=N)N)NC(=O)[C@H](CCC(N)=O)NC(=O)[C@@H](NC(=O)[C@H](C)NC(=O)[C@H](C)NC(=O)[C@@H](NC(=O)[C@H](CO)NC(=O)[C@H](CC(C)C)NC(=O)[C@H](CCC(N)=O)NC(=O)[C@H](CO)NC(=O)[C@H](C)NC(=O)CC[C@H](NC(=O)CCCCCCCCCCCCCCCCCCC(=O)O)C(=O)O)[C@@H](C)O)[C@@H](C)O)C(=O)N[C@@H](CC(C)C)C(=O)N1CCC[C@H]1C(=O)N1CCC[C@H]1C(=O)N[C@H](C(=O)N[C@@H](CC(N)=O)C(=O)N[C@H](C(=O)NCC(=O)N[C@@H](CO)C(=O)N[C@@H](CC(N)=O)C(=O)N[C@H](C(=O)N1C[C@H](O)C[C@H]1C(N)=O)[C@@H](C)O)C(C)C)[C@@H](C)O [M42] ({C20 diacid-γGlu}-ASQLSTAATQRLADFLRHSSEELKPILPPTNVGSNT[Hyp]-NH2) |
| 178 |  |  |  |  |  | 7.91 |  |  |  |  |  |  | 90 | 15.42 | CC[C@H](C)[C@H](NC(=O)[C@@H]1CCCN1C(=O)[C@H](CCCCN)NC(=O)[C@H](CC(C)C)NC(=O)[C@H](CC(N)=O)NC(=O)[C@H](Cc1c[nH]cn1)NC(=O)[C@H](CO)NC(=O)[C@H](CO)NC(=O)[C@H](Cc1c[nH]cn1)NC(=O)[C@H](CCCNC(=N)N)NC(=O)[C@H](CC(C)C)NC(=O)[C@H](Cc1ccccc1)NC(=O)[C@H](CC(=O)O)NC(=O)[C@H](C)NC(=O)[C@H](CC(C)C)NC(=O)[C@H](CCCNC(=N)N)NC(=O)[C@H](CCC(N)=O)NC(=O)[C@@H](NC(=O)[C@H](C)NC(=O)[C@H](C)NC(=O)[C@@H](NC(=O)[C@H](CO)NC(=O)[C@H](CC(C)C)NC(=O)[C@H](CCC(N)=O)NC(=O)[C@H](CO)NC(=O)[C@H](C)NC(=O)CC[C@H](NC(=O)CCCCCCCCCCCCCCCCCCC(=O)O)C(=O)O)[C@@H](C)O)[C@@H](C)O)C(=O)N[C@@H](CC(C)C)C(=O)N1CCC[C@H]1C(=O)N1CCC[C@H]1C(=O)N[C@H](C(=O)N[C@@H](CC(N)=O)C(=O)N[C@H](C(=O)NCC(=O)N[C@@H](CO)C(=O)N[C@@H](CC(N)=O)C(=O)N[C@H](C(=O)N1C[C@H](O)C[C@H]1C(N)=O)[C@@H](C)O)C(C)C)[C@@H](C)O [M52] ({C20 diacid-γGlu}-ASQLSTAATQRLADFLRHSSHNLKPILPPTNVGSNT[Hyp]-NH2) |
| 130 |  |  |  |  |  | 21.09 |  |  |  |  |  |  | 100 | 37.35 | CC[C@H](C)[C@H](NC(=O)[C@@H]1CCCN1C(=O)[C@H](CCCCN)NC(=O)[C@H](CC(C)C)NC(=O)[C@H](CC(N)=O)N(C)C(=O)[C@H](CC(N)=O)NC(=O)[C@H](CO)NC(=O)[C@H](CO)NC(=O)[C@H](Cc1c[nH]cn1)NC(=O)[C@H](CCCNC(=N)N)NC(=O)[C@H](CC(C)C)NC(=O)[C@H](Cc1ccccc1)NC(=O)[C@H](CC(=O)O)NC(=O)[C@H](C)NC(=O)[C@H](CC(C)C)NC(=O)[C@H](CCCNC(=N)N)NC(=O)[C@H](CCC(N)=O)NC(=O)[C@@H](NC(=O)[C@H](C)NC(=O)[C@H](C)NC(=O)[C@@H](NC(=O)[C@H](CO)NC(=O)[C@H](CC(C)C)NC(=O)[C@H](CCC(N)=O)NC(=O)[C@H](CO)NC(=O)[C@H](C)NC(=O)CC[C@H](NC(=O)CCCCCCCCCCCCCCCCCCC(=O)O)C(=O)O)[C@@H](C)O)[C@@H](C)O)C(=O)N[C@@H](CC(C)C)C(=O)N1CCC[C@H]1C(=O)N1CCC[C@H]1C(=O)N[C@H](C(=O)N[C@@H](CC(N)=O)C(=O)N[C@H](C(=O)NCC(=O)N[C@@H](CO)C(=O)N[C@@H](CC(N)=O)C(=O)N[C@H](C(=O)N1C[C@H](O)C[C@H]1C(N)=O)[C@@H](C)O)C(C)C)[C@@H](C)O [M44] ({C20 diacid-γGlu}-ASQLSTAATQRLADFLRHSSN[NMeN]LKPILPPTNVGSNT[Hyp]-NH2) |
